What was measured:
[1] = system: monocyte-derived DC from chimpanzee; experiment: FACS binding of biotinylated DC-peptides to chimpanzee DC
Protocol: (§1) Peripheral blood mononuclear cells (PBMCs) were isolated from blood of healthy or HCV^+ individuals by Ficoll gradient centrifugation. HCV RNA was detected in the blood of HCV-infected patients by RT-PCR. PBMCs (10^7/well) were seeded in 6-well plates for 2 hrs at 37° C. Subsequently, non-adherent cells were removed by several washes using PBS plus 2% fetal calf serum (FCS) and frozen for autologous MLR experiments. Adherent monocytes were cultured with GM-CSF (100 ng/ml) and IL-4 (10 ng/ml) in complete RPMI for 6 days (6). CD1a^+DR^bright DC were phenotyped by FACS before use. Rhesus macaque or chimpanzees DC were prepared in a parallel fashion by using Hgm-CSF (100 ng/ml) and Hil-4 (50 ng/ml) for six days (15). Mouse DC were prepared from bone marrow of BALB/c mice as described (16). On day six, CD11c^+I-A^+ DC were harvested, phenotyped and used for DC-peptide staining.
(§2) MDC (5×10^5) were incubated with biotinylated peptides (10 μg/ml each) for 1 hr at 4° C. Subsequently, cells were washed, incubated with SA-PE (1:100) for 1 hr, fixed with 0.1% paraformaldehyde and analyzed on a FACSCalibur™ using standard CellQuest software (Becton Dickinson). T cells were analyzed as we described (19). At least 10^4 gated events/condition were acquired for all analyses.
(§3) To test peptide binding specificity, biotinylated peptides #3, #12 and #18 were incubated with CD1a^+DR^bright CD11^bright monocyte-derived human DC, and analyzed by FACS.

[2] = system: CD11c+I-A+ DC derived from mouse bone marrow; experiment: FACS binding of biotinylated DC-peptides to mouse bone marrow derived DC; details: FACS (FIG. 1F)
Protocol: as §1, §2, §3

[3] = system: monocyte-derived DC from rhesus macaque; experiment: FACS binding of biotinylated DC-peptides to rhesus macaque DC; details: FACS (FIG. 1E)
Protocol: as §1, §2, §3

[4] = system: CD1a+DRbright CD11bright monocyte-derived human DC; experiment: FACS binding of biotinylated DC-peptides to human monocyte-derived DC; details: for binding to monocyte-derived human DC: biotinylated peptides, FACS and confocal microscopy (FIG. 1A, 1B)
Protocol: as §1, §2, §3
The cognate ligands for these peptides are unknown. Thus, we next tested whether these peptides bound distinct epitopes. DC presaturated with non-biotinylated peptide no longer bound the corresponding biotinylated peptide (FIG. 2A). […] Thus, the three DC-binding peptides bound distinct, saturable DC surface epitopes.
Biotinylated peptide #3 bound immature DC within 1 hr at 4° C. (FIG. 2D). Staining was decreased over the following 20 hrs at 37° C. (FIG. 2D) consistent with antigen uptake by Dcs (15, 22). […] Peptides bound immature (upper panel) and mature MDC (lower panel) comparably (FIG. 2E), although LPS-mediated maturation appeared to increase peptide binding slightly by inducing a new, minor population of high peptide-binding DC.

With “AYYKTASLAPAE (PEPTIDE peptide specific to myeloid dendritic cells) [compound 12]” the “binding to monocyte-derived DC from chimpanzee” value (“binding … from chimpanzee” for short) [1] was “specifically bound”, the “binding to CD11c+I-A+ DC derived from mouse bone marrow” value (“binding to CD11c+I-A+ DC derived” below) [2] was “did not” and the “binding to monocyte-derived DC from rhesus macaque” value (from here on “binding … from rhesus macaque”) [3] was “specifically bound”. For the same sequence, the “binding to monocyte-derived human DC” value [4] was “bound to DC”.
With “EPIHPETTFTNN [control peptide, reference compound]” the “binding of 12-mer peptide to DC” value ([4]; selected from the same panning as negative control) was “did not bind to DC”.
FYPSYHSTPQRP [peptide #3] was tested, and the “binding … from chimpanzee” value [1] was “specifically bound”, the “binding to CD11c+I-A+ DC derived” value [2] was “bound” and the “binding … from rhesus macaque” value [3] was “specifically bound”. For the same sequence, the “staining of DC over the following 20 hrs” value ([4]; 37° C., consistent with antigen uptake (FIG. 2D)) was “decreased”, the “DC viability during peptide incubation” value ([4]; 20 hrs at 37° C.) was “remained viable” and the “time to binding of immature DC” value ([4]; biotinylated peptide, 4° C. (FIG. 2D)) was at most 1 h. For the same sequence, the “binding to monocyte-derived human DC” value [4] was “bound to DC”.
For “SLSLLTMPGNAS (PEPTIDE peptide specific to myeloid dendritic cells) [compound 18]”, the “binding … from chimpanzee” value [1] was “specifically bound”, the “binding to CD11c+I-A+ DC derived” value [2] was “did not” and the “binding … from rhesus macaque” value [3] was “specifically bound”. For the same sequence, the “binding to monocyte-derived human DC” value [4] was “bound to DC”.

— patent US8372409B2, “Dendritic cell binding proteins and uses thereof” (University of Florida Research Foundation, Inc., priority 2003, dated 2013)
